We go through one compound from US11666600B2, “Methods for culturing and/or differentiating hematopoietic stem cells into progenitors and uses thereof” (HEMA-QUEBEC, priority 2015, dated 2023).

The structures appear in SMILES notation.

In one assay the test system is cord blood CD34+ cells. The experiment in a line: Expansion of CD34+/CD41+ megakaryocytic progenitors from cord blood CD34+ cells. It is filed as cell-based, human. The conditions noted are these: 39° C. + PIC2 500 nM; 14 days; SFEM + BS1; FIG. 7. As to the method: Human cord blood (CB) was collected after obtaining written informed consent from donors, following our institutional Research Ethics Committee guidelines. Mononuclear cells (MNCs) were first separated over a Ficoll-Hypaque™ density gradient (GE Healthcare), then cryopreserved at −180° C. in Cryostor CS10™ medium ([…] Technologies). Thawed MNCs from six to eight CB were pooled before CD34 isolation. CB CD34+ cells were enriched by positive selection using the EasySep™ CD34 enrichment kit, according to the manufacturer's instructions ([…] Technologies). […]
Cellular counts and viability were determined by adding Solution 18 (Acridine Orange and DAPI solution, ChemomMetec) and using NucleoCounter™ NC-250 for detection (ChemomMetec).
For cells expanded in conditions favoring differentiation towards the MK lineage, surface markers were detected using the following antibodies: CD34-FITC, CD41a-APC and CD42b-PE. […] All samples were analyzed on an Accuri™ C6 flow cytometer (BD Biosciences), and raw data were analyzed with FCS Express 5 Flow Research Edition software from at least 15 000 viable cell events acquired for each sample. […]
Cellular counts and viability were determined as described in Example 6.5. […]

Assay [1] relates to CD34+/CD45RA− mobilized peripheral blood cells. The conditions noted are these: Fares et al., 2014; cited from earlier work.
For assay [2], the system named is aryl hydrocarbon receptor (AhR) pathway. The conditions noted are these: Fares et al., 2014; cited from earlier work.

Turning to `COC(=O)c1ccc2c(c1)[nH]c1ncnc(NCCCN3CCCCC3)c12` [PIC2, Methyl 4-((3-(piperidin-1-yl)propyl)amino)-9H-pyrimido[4,5-b]indole-7-carboxylate], in the assay on cord blood CD34+ cells, the “combined use of mild hyperthermia and PIC2 on expansion of CB CD34+/CD41+ cells” value is listed as “synergistic effect”. In addition, the “expansion of CD34+/CD45RA− mobilized peripheral blood cells (enriched in LT-HSCs)” value in assay [1] is “stimulate expansion”. For the same compound, in assay [2], the “suppression of the aryl hydrocarbon receptor (AhR) pathway” value is given as “without acting as suppressors”.
